Source: ChEMBL document CHEMBL1141445, “Rhizochalins C and D from the sponge Rhizochalina incrustata. A rare threo-sphingolipid and a facile method for determination of the carbonyl position in alpha,omega-bifunctionalized ketosphingolipids” (2007)

System: Nakaseomyces glabratus
Assay: Antifungal activity against fluconazole-resistant Candida glabrata
Assay type: functional
Conditions: read-out: ED50 (the source's name)

Q: With `C[C@@H](N)[C@H](O)CCCCCCCC(=O)CCCCCCCCCCCCCC[C@@H](O[C@@H]1O[C@H](CO)[C@H](O)[C@H](O)[C@H]1O)[C@@H](C)N` [RHIZOCHALIN] as the compound, how does the EC50 read?
A: 40 µM

Q: With `CC1[C@@H](CO)O[C@@H](O[C@H](CCCCCCCC(=O)CCCCCCCCCCCCCC[C@@H](O)[C@@H](C)N)[C@@H](N)CO)[C@H](O)[C@H]1O` (some centres undefined) [OCEANAPISIDE] as the compound, how does the EC50 read?
A: 40 µM

Q: How did the EC50 turn out when `C[C@@H](N)[C@H](O)CCCCCCCCC(=O)CCCCCCCCCCCCCC[C@@H](O[C@@H]1O[C@H](CO)[C@H](O)[C@H](O)[C@H]1O)[C@@H](C)N` [RHIZOCHALIN D] was run?
A: > 150 µM

Q: How did the EC50 turn out when `C[C@@H](N)[C@H](O)CCCCCCCC(=O)CCCCCCCCCCCCCC[C@@H](O[C@@H]1O[C@H](CO)[C@H](O)[C@H](O)[C@H]1O)[C@H](N)CO` [RHIZOCHALIN C] was run?
A: > 150 µM
